The values below come from PMC6027464, “Separation, Identification, and Antidiabetic Activity of Catechin Isolated from Arbutus unedo L. Plant Roots” (Plants, 2018).

The target of the experiment is α-glucosidase. The experiment is described as follows: p-NPG hydrolysis assay with commercial enzyme (Sigma-Aldrich), absorbance at […] nm. Type of experiment: biochemical.

As to `Oc1cc(O)c2c(c1)O[C@H](c1ccc(O)c(O)c1)[C@@H](O)C2` [Catechin], the “α-Glucosidase Inhibitory Activity IC50 (μg/mL), ±SD” value was 87.55 ± 2.23 µg/mL.
